In EP1206494B1, “COMPUTATIONAL DESIGN METHODS FOR MAKING MOLECULAR MIMETICS” (SYNT:EM S.A., priority 1999, dated 2001):
One block for each compound: values may come before it. Where a SMILES comes first, the peptide text is derived from it. Bridges are numbered along the chain shown (N, C = ends). Mpa = O=C(O)CCS

Key:
HIV-1-LAI strain [1] = test: Antiviral activity assay on PBMCs infected by HIV isolates (reverse transcriptase in day 7 supernatant); assay type: cell-based; conditions: Human immunodeficiency virus 1, PBMC
Description: Mononucleated cells were isolated from peripheral blood of a healthy donor (and seronegative for HIV and hepatitis viruses) with a gradient of Ficoll-Hypaque. The PBMCs were activated by […] of phytohemaglutinine-P (PHA-P, Difco Laboratories, Detroit, USA) during three days, then cultured at 200,000 cells per well in a 96-well plate, in a culture medium A, complemented by 20 IU/ml of recombinant interleukin-2 (rHuIL-2, Roche Products, Mannheim, Germany). Medium A consists of: RPMI cell culture (RPMI 1640, Roche Products), 10% Fetal Calf Serum (FCS, Roche Products complement inactivated by heating at 56°C for 45mn, 2mM L-glutamine (Roche Products) and a solution of three antibiotics (penicillin, streptomycin and neomycin (PSN, LifeTechnologies, Grand Island, JSA). During culture, cells were maintained at +37°C, in a saturated humid atmosphere, under 5% CO2.
(§1) PBMCs were infected over 1 hour at 37°C with a 10 000 tissue culture infectious dose 50% (TCID50) of the lymphocytary tropism reference strain HIV-1-LAI. At the end of the incubation, cells were washed twice with medium A. The HIV-1 strain was exclusively amplified, in the Neurovirology Service, with Umbilical Blood Mononucleated Cells (UBMC) activated with PHA-P, and the TCID50 was calculated using the Kärber formula.
The mimetic and the scrambled peptide were dissolved in ultrapure sterile water. Five concentrations were tested (50 µM, 10 µM, 5 µM, 1 µM and 0.5 µM). Antibodies ST40 and 9E8 (provided by the CNRS UMR 9921, Montpellier) were tested at the following concentrations: 100 µg/ml, 10 µg/ml, 1 µg/ml, 100 ng/ml and 10 ng/ml.
(§2) The activities of these compounds were compared to the Q4120 reference antibody and to AZT. […] The anti-HIV activity of AZT was measured at the following concentrations: 10 µM, 1 µM, 100 nM, 10 nM and 1 nM. […]
(§3) All experiments were performed in triplicate. […] The viral replication was measured by dosing the inverse transcriptase activation in the supernatant of the 7th day culture, using a dosing kit Retrosys(r), supplied by Innovagen (Lund, Sweden).

human recombinant CD4 = molecular target: T1, human recombinant CD4 (Homo sapiens, UniProt P01730); test: BIAcore surface plasmon resonance kinetic analysis: binding of soluble CD4 to immobilized mimetic
T1 construct: purchased RepliGen (USA)
Description: The human recombinant CD4 used for the kinetic analysis and the biological assays was obtained from RepliGen (USA).
The kinetic parameters, association rate constant (ka) and dissociation rate constant (kd), were determined by surface plasmon resonance (SPR) analysis using BIACORE 2000 (Biacore AB, Uppsala, Sweden). ka and kd were determined using BIAevaluation 3.0 software (BIAcore AB). The apparent equilibrium constant KD is the ratio kd/ka. All experiments were carried out at 25°C.
The free SH group of the lysine side chain extended by a 3-mercaptopropionic acid linker of the mimetic was used to chemically immobilize molecules on a B1 sensor chip (BIAcore AB) following a standard PDEA/EDC/NHS procedure from BIAcore.
The binding kinetic of CD4 to immobilized mimetic was determined by injecting CD4 (1-20 µg/ml, 16-330 nM) in HBS buffer (running buffer) at a flow rate of 30 µl/min.

HIV-1-LAI strain [2] = assay type: cell-based; conditions: dose independent, non-linear behavior
Description: Mononucleated cells were isolated from peripheral blood of a healthy donor (and seronegative for HIV and hepatitis viruses) with a gradient of Ficoll-Hypaque. The PBMCs were activated by […] of phytohemaglutinine-P (PHA-P, Difco Laboratories, Detroit, USA) during three days, then cultured at 200,000 cells per well in a 96-well plate, in a culture medium A, complemented by 20 IU/ml of recombinant interleukin-2 (rHuIL-2, Roche Products, Mannheim, Germany). […]
as §1, with “formula. […]” for “formula.”
as §2, §3

SMILES: Cc1cn([C@H]2C[C@H](N=[N+]=[N-])[C@@H](CO)O2)c(=O)[nH]c1=O [AZT]
inhibition at 0.001 µM (HIV-1-LAI strain [1]): 66 ± 5%
inhibition at 0.01 µM (HIV-1-LAI strain [1]): 74 ± 13%
inhibition at 0.1 µM (HIV-1-LAI strain [1]): 100%

kon (human recombinant CD4; immobilized mimetic and soluble CD4, 25°C, read-out: ka): 82600 M⁻¹ s⁻¹
Kd (human recombinant CD4; ratio kd/ka, read-out: calculated KD): 3.2 nM
SMILES: CC(=O)N[C@@H](C)C(=O)N[C@@H](CCCNC(=N)N)C(=O)N[C@@H](CCCNC(=N)N)C(=O)N1CCC[C@H]1C(=O)N[C@H]1CCCCNC(=O)[C@@H]2CCCN2C(=O)CNC(=O)[C@H](Cc2ccc(O)cc2)NC(=O)[C@H](C)NC(=O)[C@H](C(C)C)NC(=O)[C@H](Cc2c[nH]c3ccccc23)NC(=O)[C@@H]2CCCN2C(=O)CNC(=O)[C@H](Cc2c[nH]c3ccccc23)NC(=O)[C@H](C(C)C)NC(=O)[C@H](CC(N)=O)NC(=O)[C@@H]2CCCN2C(=O)[C@H](Cc2c[nH]cn2)NC(=O)[C@H](CC(N)=O)NC(=O)[C@H](CCCCNC(=O)CCS)NC(=O)[C@H](C(C)C)NC(=O)[C@H](Cc2ccc(O)cc2)NC(=O)[C@@H]2CCCN2C(=O)[C@H](C)NC(=O)[C@H](CCCNC(=N)N)NC(=O)[C@H](Cc2ccc(O)cc2)NC(=O)[C@H](Cc2ccccc2)NC1=O [Mk3Tyr-long1SH] (Ac-ARRPKFYRAPYVK(Mpa)NHPNVWGPWVAYGP; lactam 5-C)

SMILES: CC[C@H](C)[C@H](NC(C)=O)C(=O)N[C@@H](Cc1c[nH]c2ccccc12)C(=O)N[C@H](C(=O)N[C@H]1CCCCNC(=O)CNC(=O)[C@H](Cc2c[nH]c3ccccc23)NC(=O)[C@H](C(C)C)NC(=O)[C@@H]2CCCN2C(=O)[C@H](CCCNC(=N)N)NC(=O)[C@H](C)NC(=O)[C@H](CC(N)=O)NC(=O)[C@@H]2CCCN2C(=O)[C@H](C)NC(=O)[C@H](CCCNC(=N)N)NC(=O)[C@@H]2CCCN2C(=O)CNC(=O)[C@H](Cc2ccc(O)cc2)NC(=O)[C@H](Cc2ccccc2)NC(=O)[C@H](CS)NC(=O)[C@H](CCCNC(=N)N)NC(=O)[C@H](CC(N)=O)NC(=O)[C@H](Cc2ccc(O)cc2)NC(=O)[C@@H]2CCCN2C(=O)[C@H](C(C)C)NC(=O)[C@H](Cc2c[nH]cn2)NC(=O)[C@@H]2CCCN2C(=O)[C@H](C)NC1=O)C(C)C [scrambled peptide] (Ac-IWVKAPHVPYNRCFYGPRAPNARPVWG; lactam 4-C)
anti-retroviral activity (in words) (HIV-1-LAI strain [2]): within the background noise
